Here are results for 4 compounds from article PMC9863266, “Preclinical Studies and Drug Combination of Low-Cost Molecules for Chagas Disease” (Pharmaceuticals, 2022).

Values joined by “and” are separate entries in the source; they are usually repeats but may differ in a detail not shown here. Identical values can stand only once. Where only a bound is given, the exact number is not on record here.

The subject of data set [1] is CL Brener clone of T. cruzi. As to the kind of experiment: Acute murine model of Chagas disease. The class given is in vivo, Balb/c mice. The protocol:
Three-month-old Balb/c mice were infected (day 0) with infected blood from mice at the beginning of the peak of parasitemia (parasitemia greater than 1.0 × 10^6 p /mL with the CL Brener clone of T. cruzi) by intraperitoneal injection (10,000 parasites per mouse). Parasitemia was followed from the fourth-day post-infection until all the mice in the group were positive. Parasitemia measurements were performed by optical microscopy. Once all the mice were positive, the treatment was started. The treatment lasted 15 consecutive days; the compounds were administered orally by intragastric cannula once a day. Parasitemia was monitored weekly. At 30 and 60 days, 200 μL of blood was extracted from the mouse tail for serological tests (ELISA test) to detect antigens of T. cruzi. Day 60 was the end of the experiment, and the animals were sacrificed.
Hemoconcentration and counting micromethod: the mice were bled by pricking the tail and taking the blood with capillaries. One capillary per mouse draws 8-18 mm in height of blood. The millimeters were converted to μL by a table previously described and calibrated in the laboratory. The capillaries were centrifuged at 3000× g for 40 s. The parasitic load in the capillary was observed by optical microscopy (OM) in the capillary: the red blood cells (GR) were distributed at one end and the supernatant serum at the other end, at the interface is the trypomastigotes. Then, the capillary was cut a few mm on the interface towards the GR part and its content was spread on a slide, covered with a coverslip. Then, the total number of parasites in 50 fields (OM at 40× magnification) was counted. This sum was then multiplied by 1/50 to obtain the average number of trypomastigotes per field, corresponding to the number of trypanosomes per 5 mm^3. This was then compared to the samples from control animals. The mean and standard deviation were calculated by using OriginPro9 and GraphPad Prism 5. Comparisons of parasite suppression were completed by the analysis of variance (two-way ANOVA as a […] statistical test).

Another data set concerns T. cruzi amastigotes. Further details: method as in earlier work. The conditions noted are these: read-out: In vitro anti-T. cruzi activity (multiple strains) (IC50); cited from earlier work.
A further data set has as its system CD1 and Balb/c mice. Further details: method as in earlier work. The conditions noted are these: cited from earlier work.
A further data set relates to Leishmania infantum. Also on record: method as in earlier work. The conditions noted are these: amastigotes; read-out: In vitro anti-Leishmania infantum (visceral) activity (IC50); cited from earlier work.
For data set [2], the system named is Salmonella typhimurium strains TA98, T100, T102, TA1535, and TA1537. The conditions noted are these: cited from earlier work.
The next data set has as its system cruzipain. The conditions noted are these: cited from earlier work.
Data set [3] relates to Leishmania spp (cutaneous) promastigotes. Also on record: method as in earlier work. The conditions noted are these: read-out: In vitro anti-Leishmania spp (cutaneous) activity (IC50); cited from earlier work.
The subject of another data set is zebrafish embryos. Further details: method as in earlier work. The conditions noted are these: cited from earlier work.
Data set [4] concerns CD-1 mice. The conditions noted are these: mouse, in vivo; cited from earlier work.
The test system of data set [5] is epimastigote form of T. cruzi, Tulahuen 2 strain. As to the kind of experiment: Mechanism of death by flow cytometry, AV/IP labeling. The class given is cell-based. The conditions noted are these: 24 h; 20 × IC50. How it is done: Parasites were immediately analyzed on an Accuri C6 flow cytometer (BD Bioscience, Franklin Lakes, New Jersey, U.S.). […] Ten thousand events were analyzed for each of the two independent experiments. Data were analyzed using BD CSampler software (BD Bioscience). Untreated parasites were used as a control. For the positive control of apoptosis and necrosis, the parasites were treated with hydrogen peroxide (H2O2) 50 µM and 100 µM for 2.5 h, respectively. These single-spot controls were used to calculate color compensation for flow cytometry.

The test system of data set [6] is CD-1 mice. As to the kind of experiment: Micronucleus test in mice (genotoxicity). The conditions noted are these: positive control, 50 mg/kg intraperitoneal, single dose 24 h before sacrifice. The protocol:
The protocol was approved by the Paraguayan ethics committee for animal experimentation (No. IORG0010088). […] The treatment of each group was repeated five times, totaling 5 animals per concentration. The route used in the administration of the negative control and the compound (groups I and II) was oral, using an esophageal cannula and in group III the route was intraperitoneal. The intervention was carried out in two doses: 24 and 48 h before sacrifice, except for cyclophosphamide, which was administered in a single dose, 24 h before sacrifice. At the end of the experiment, the femurs were harvested, and the red bone marrow was removed with fetal bovine serum, kept at 37 °C. […] Samples were stained with 4 % Giemsa stain for 3 min and analyzed under an immersion light microscope. For each treated animal, 1000 polychromatic erythrocytes (EPCs) were counted, including those that presented micronucleus (EPCMNs). The ratio of polychromatic erythrocytes (EPC) vs. normochromatic erythrocytes (ENC), upon counting 100 cells, was also evaluated. The proportion of EPCMNs was calculated for each group, and the treated groups with the compound and cyclophosphamide were compared with the negative control group. The statistical analysis was carried out from the individual values of the evaluated parameters, calculating the mean values and their standard deviations for each of the experimental groups. […]

Regarding `O=C(Cn1ccnc1[N+](=O)[O-])NCc1ccccc1` [Bnz, Benznidazole], in data set [1] (10 µmoles/kg/day), the “Days Post-Infection of the First Parasitemia Peak” value (“Days Post-Infection” for short) turned out to be 15 days, the “Reduction in the Parasitemia Peak (%)” value is recorded as 80% and the “Survival (%)” value was determined as 100%. Also, in [1] (38 µmoles/kg/day), the “Days Post-Infection” value came out at 15 days, the “Reduction in the Parasitemia Peak (%)” value turned out to be 90% and the “Survival (%)” value amounted to 100%. For the same compound, in data set [1] (48 µmoles/kg/day), the “Days Post-Infection” value was 43 days, the “Reduction in the Parasitemia Peak (%)” value stood at 95% and the “Survival (%)” value amounted to 100%.

Broadly, the IC50 is the concentration at which inhibition is half-maximal. With `CC(=NNC(N)=S)[C@H]1CC[C@H]2[C@@H]3CC=C4C[C@@H](O)CC[C@]4(C)[C@H]3CC[C@]12C` [Compound 1260, 1-(3β-Hydroxy-pregn-5-ene-20E-ylydene)thiosemicarbazide], the 50% inhibitory concentration (IC50) in the data set with T. cruzi amastigotes is 100 nM; in the data set on Leishmania infantum, less than 200 nM; in data set [3], less than 20000 nM. For the same compound, the “Acute oral toxicity in mice (Up and Down test, LD50)” value with CD1 and Balb/c mice was > 2000 mg/kg of body weight. Besides, in data set [2], the “Ames test (mutagenicity)” value was “NO”. Further, the “Cruzipain inhibitor (known)” value in the data set with cruzipain was “not an inhibitor of cruzipain”. In addition, the “Teratogenicity in zebrafish (LD50)” value in the data set on zebrafish embryos is reported as more than 15 µM. Further, the “Micronucleus test in mice (Genotoxicity)” value in the data set on CD-1 mice [4] is “NO”.

In the case of `CC1CS(=O)(=O)CCN1/N=C/c1ccc([N+](=O)[O-])o1` (stereo not shown) [Nfx, Nifurtimox, reference compound], the “AV/IP labeling Q1-UR (double AV+/IP+ labeling)” value in data set [5] came to 59%.

For `O=P1(N(CCCl)CCCl)NCCCO1` (stereo not shown) [cyclophosphamide, reference compound], the “Micronucleus test in mice (Genotoxicity) (mean of MnPE ±SD)” value in the data set with CD-1 mice [6] is 36 ± 2 MnPE and 36 ± 2 (cyclophosphamide) MnPE.
